# According to patent publication US20060009425A1, “Oral formulations of paricalcitol” (priority 2004, published 2006):
# Experiments:
# [1] = Phase 3 TIW study, safety (Example 7); type: in vivo, human
# Procedure: Safety: Safety was assessed through an evaluation of clinically meaningful hypercalcemia (2 consecutive calcium results >10.5 mg/dL). Additionally, safety was assessed by the incidence of adverse events, the change from baseline in chemistry, hematology and urinalysis laboratory variables, the change from baseline in subject vital signs, and progressive changes in renal function observed via changes in eGFR.
# All randomized subjects who received at least 1 dose of study drug were used in safety analyses. The primary safety analysis was a comparison between the paricalcitol and placebo treatment groups of the proportion of subjects achieving clinically meaningful hypercalcemia (2 consecutive calcium measurements >10.5 mg/dL). This comparison was performed using a Fisher's exact test. Secondary safety analyses were performed comparing changes/percent changes from baseline between the paricalcitol and placebo treatment groups using a one-way ANOVA with treatment group as the factor for the following variables: hematology, complete chemistry, and urinalysis variables; 24-hour urine collections, eGFR, urinary calcium/creatinine ratio, cardiovascular markers, and vital signs. Secondary safety analyses also consisted of an analysis of “treatment-emergent” adverse events (i.e., adverse events with an onset date on or after the date the first dose of study drug was taken). Adverse events were summarized by body system and COSTART term according to the COSTART V adverse event-coding dictionary. Comparisons of the percentage of subjects experiencing an adverse event between the Oral paricalcitol and placebo treatment groups were performed using a Fisher's exact test.
# [2] = Bioavailability of capsule vs intravenous formulation, end-stage renal disease on hemodialysis (Example 3); type: in vivo; settings: human, plasma
# Procedure: Methodology: This was a Phase I, open-label, randomized, single-dose, two-period, crossover, nonfasting study. Subjects were randomized into two sequence groups of Regimens A and B. The two nonfasting study regimens were:
# The intravenous formulation contained 2-10 micrograms/milliliter of paricalcitol, 30% (v/v) propylene glycol, 20% (v/v) ethanol and 50% (v/v) water.
# Both regimens were administered at the end of a regular hemodialysis session on Study Day 1, 30 minutes after a breakfast was served. […] Fourteen subjects participated in the study. […] A washout interval of at least 7 days separated the doses of the two study periods. […] Plasma concentrations of paricalcitol were determined using a validated liquid chromatography—tandem mass spectrometric assay method at Abbott Laboratories, Abbott Park, Ill. […] The lower limit of quantification of paricalcitol was 0.02 ng/mL using a 0.6 mL plasma sample.
# Pharmacokinetics: The pharmacokinetic parameter values of paricalcitol were estimated using noncompartmental methods. […] The volume of distribution for intravenous administration (Vdβ) and apparent volume of distribution for oral administration (Vdβ/F) value were calculated by dividing the clearance by β. […]
# [3] = Phase 3 TIW study, safety (Example 6)
# Procedure: Additionally, safety was assessed by the incidence of adverse events, the change from baseline in chemistry, hematology and urinalysis laboratory variables, the change from baseline in subject vital signs, and progressive changes in renal function observed via changes in eGFR.
# All randomized subjects who received at least 1 dose of study drug were used in safety analyses. […] This comparison was performed using a Fisher's exact test. Secondary safety analyses were performed comparing changes/percent changes from baseline between the paricalcitol and placebo treatment groups using a one-way ANOVA with treatment group as the factor for the following variables: hematology, complete chemistry, and urinalysis variables; 24-hour urine collections, eGFR, urinary calcium/creatinine ratio, cardiovascular markers, and vital signs. Secondary safety analyses also consisted of an analysis of “treatment-emergent” adverse events (i.e., adverse events with an onset date on or after the date the first dose of study drug was taken). Adverse events were summarized by body system and COSTART term according to the COSTART V adverse event-coding dictionary. Comparisons of the percentage of subjects experiencing an adverse event between the paricalcitol and placebo treatment groups were performed using a Fisher's exact test.
# [4] = system: serum parathyroid hormone (PTH) levels; experiment: Phase 3 placebo-controlled TIW study, iPTH reduction (Example 7); type: in vivo, human
# From the text: Methodology: This was a Phase 3, prospective, randomized, placebo-controlled, double-blind, 24-week Treatment Phase, multi-center study in CKD (Stages 3 and 4) subjects with elevated PTH levels (≧150 pg/mL). Subjects were randomized in an equal ratio (1:1) to 1 of 2 treatment groups: paricalcitol capsule (Group 1) and placebo (Group 2). Potential subjects underwent procedures to determine their baseline intact PTH (iPTH), calcium, and phosphorus levels for eligibility to receive treatment.
# During the Treatment Phase, subjects were to self-administer study drug 3 times weekly, on Monday, Wednesday and Friday, for a total of 24 weeks. The initial dose was 2 or 4 mcg (depending on baseline iPTH levels). Procedures to be performed during the Treatment Phase included vital signs, chemistry and hematology, urinary pyridinoline, urinary deoxypyridinoline, serum bone-specific alkaline phosphatase, serum osteocalcin, urinalysis, spot urine for calcium/creatinine ratio, and recording of adverse events and concurrent medications. Serum iPTH, calcium, phosphorus, and albumin were measured every 2 weeks. Dose adjustments were to be made according to these chemistry results for iPTH, calcium, and phosphorus. Doses may have been increased in 2 mcg increments every 4 weeks.
# Efficacy: The primary efficacy endpoint was the achievement of 2 consecutive ≧30% decreases from baseline iPTH levels. The secondary efficacy analyses include change and percent change from baseline analyses in iPTH and change from baseline analyses in biochemical bone markers.
# The Intent-To-Treat population (Full Analysis Set) was defined as all randomized subjects with a baseline iPTH and at least 2 on-treatment iPTH measurements. This population was used in the primary efficacy analysis.
# [5] = Combined Phase 3 studies, safety (Examples 10-12); type: in vivo, human
# Procedure: As discussed previously, Vitamin D deficiency is common in early stage CKD and is a major factor in the development of 2° HPT. However, few nephrologists prescribe calcitriol due to concerns of its calcemic, phosphatemic and calciuric effects and potential adverse effect on kidney function. In this example, a study was conducted that evaluated the safety of paricalcitol capsule in CKD stage 3-4 subjects with 2° HPT in 3 double-blind, placebo-controlled multicenter studies. A total of 220 subjects with iPTH ≧150 pg/mL, serum Ca 8-10 mg/dL and P≦5.2 mg/dL were randomized 1:1 and treated with paricalcitol capsule (N=107) or placebo (N=113) three times per week or daily for 24 weeks. Initial doses were based on iPTH levels at baseline (iPTH <500 pg/mL: 2 mcg TIW or 1 mcg QD; iPTH ≧500 pg/mL: 4 mcg TIW or 2 mcg QD). Subsequent dose adjustments (TIW: 2 mcg, QD: 1 mcg) were based on biweekly Ca, P and iPTH results, dose increases occurred every 4 weeks.
# In this example, three double-blind, placebo-controlled, multicenter studies were conducted to evaluate the safety and efficacy of paricalcitol capsule in CKD stage 3-4 subjects. Major inclusion included eGFR (MDRD formula) 15-60 mL/min/1.73 m^2, iPTH ≧150 pg/mL. A total of 220 subjects across the 3 studies were randomized and received paricalcitol capsule or placebo three times weekly (TIW, N=145) or daily (QD, N=75) for 24 weeks. Mean baseline eGFR was 23.90 mL/min/1.73 m^2 in the paricalcitol group and 23.44 mL/min/1.73 m^2 in the placebo group. The initial dose was 2 mcg (TIW) or 1 mcg (QD) for baseline iPTH ≦500 pg/mL and 4 mcg (TIW) or 2 mcg (QD) for baseline iPTH >500 pg/mL. Doses were titrated based on serum Ca, P and iPTH results that were measured every 2 weeks, dose increases occurred every 4 weeks.
# In this example, paricalcitol capsules were evaluated in 3 double-blind, placebo-controlled multicenter studies in CKD stage 3-4 subjects with 2° HPT; 2 of these studies were conducted with TIW dosing and 1 was done with QD dosing. Subjects with eGFR (MDRD formula) 15-60 ml/min/1.73 m^2, iPTH ≧150 pg/mL, serum Ca 8.0-10.0 mg/dL and PO4≦5.2 mg/dL were randomized 1:1 and treated with paricalcitol capsule or placebo for 24 weeks. A total of 145 subjects used TIW regimen (paricalcitol: 72; placebo: 73) and 75 subjects (paricalcitol: 35; placebo: 40) used QD regimen. After the initial doses, doses were titrated based on serum Ca, P and iPTH results that were measured every 2 weeks; dose increases occurred once every 4 weeks and decreases every 2 weeks. Dosing administrations are shown below in Table 18.
# [6] = subjects who completed 24 weeks of treatment
# [7] = 3 Phase 3 studies, TIW or daily for 24 weeks, CKD stage 3-4
# [8] = N = 106, 3 Phase 3 studies combined
structure (smiles),measurement,setting,value
"C[C@H](/C=C/[C@H](C)C(C)(C)O)[C@H]1CC[C@H]2/C(=C/C=C3C[C@@H](O)C[C@H](O)C3)CCC[C@]12C [Paricalcitol, 19-nor-1α,3β,25-trihydroxy-9,10-secoergosta-5(Z); 7(E),22(E)-triene]",safety and tolerability,[1]; CKD (Stages 3 and 4) subjects,safe and well tolerated
same,adverse events considered not related to study drug administration,"[1]; TIW, 24 weeks",81%
same,adverse events mild or moderate in severity,"[1]; TIW, 24 weeks",96%
same,subjects with treatment-emergent adverse events,"[1]; TIW, 24 weeks",76%
same,"mean calcium values, range over scheduled visits",[1]; Treatment Phase,9.36 to 9.62 mg/dL
same,subjects reporting serious adverse events,[1]; Treatment and Follow-Up Phases,6 subjects
same,adverse event incidence: diarrhea,[1]; in vivo,9%
same,adverse event incidence: dizziness,[1]; in vivo,12%
same,adverse event incidence: edema,[1]; in vivo,9%
same,adverse event incidence: hypotension,[1]; in vivo,12%
same,adverse event incidence: uremia,[1]; in vivo,12%
same,"serum calcium, mean change from baseline to Last On-Treatment Visit",[1]; in vivo,0.19 mg/dL
same,subjects terminated prematurely due to adverse events,[1]; in vivo,1 subjects
same,subjects who developed clinically meaningful hypercalcemia (at least 2 consecutive calcium values >10.5 mg/dL),[1]; in vivo,1/33
same,"eGFR, mean percent change from baseline to Final Visit",[1]; [6],−16.61%
same,half-life,"[2]; 0.24 ug/kg, 0.24 μg/kg single dose, hemodialysis, harmonic mean ± pseudo-standard deviation",~14 h
same,bioavailability,"[2]; 0.24 μg/kg, single oral dose, nonfasting, end-stage renal disease on hemodialysis, read-out: estimated absolute bioavailability",78.8%
same,safety and tolerability,[3]; CKD (Stages 3 and 4) subjects,safe and well tolerated
same,adverse events considered not related to study drug administration,"[3]; TIW, 24 weeks",85%
same,adverse events mild or moderate in severity,"[3]; TIW, 24 weeks",88%
same,subjects with treatment-emergent adverse events,"[3]; TIW, 24 weeks",79%
same,subjects reporting serious adverse events,[3]; Treatment and Follow-Up Phases,9 subjects
same,deaths,"[3]; cardiopulmonary arrest, considered not related to study drug",1 subject
same,adverse event incidence: constipation,[3]; in vivo,8%
same,adverse event incidence: depression,[3]; in vivo,8%
same,adverse event incidence: headache,[3]; in vivo,8%
same,adverse event incidence: hypertension,[3]; in vivo,8%
same,adverse event incidence: infection,[3]; in vivo,8%
same,adverse event incidence: pain,[3]; in vivo,10%
same,adverse event incidence: pharyngitis,[3]; in vivo,10%
same,adverse event incidence: rhinitis,[3]; in vivo,8%
same,adverse event incidence: vertigo,[3]; in vivo,8%
same,subjects terminated prematurely due to adverse events,[3]; in vivo,1 subjects
same,subjects who developed clinically meaningful hypercalcemia (at least 2 consecutive calcium values >10.5 mg/dL),[3]; in vivo,1/38
same,subjects with 4 consecutive ≧30% decreases from baseline in iPTH,"[4]; 26/32, exploratory analysis",81%
same,subjects with 2 consecutive ≧30% decreases from baseline in iPTH,"[4]; 29/32, TIW, 24 weeks, CKD Stages 3 and 4",91%
same,30% mean reduction in iPTH occurred by,[4]; TIW,≤ 9 Week
same,mean change from baseline in iPTH at the Final Visit,"[4]; TIW, 24 weeks",-80.7 pg/mL
same,mean change from baseline in iPTH at the Last On-Treatment Visit,"[4]; TIW, 24 weeks",-83.1 pg/mL
same,percent decrease in iPTH at the Final Visit,"[4]; TIW, 24 weeks",30.3%
same,percent decrease in iPTH at the Last On-Treatment Visit,"[4]; TIW, 24 weeks",33.4%
same,maximum decrease from baseline in iPTH,[4]; observed at Week 17,−48.2%
same,subjects who experienced hypercalcemia (2 consecutive Ca >10.5 mg/dL),"[5]; 2/106, 3 Phase 3 studies combined",2%
same,adverse event incidence: pharyngitis,[5]; 3 Phase 3 studies combined,10%
same,treatment-emergent adverse events reporting,[5]; 3 Phase 3 studies combined,82%
same,"Urine Calcium, Mean Change from Baseline (SE)",[5]; [7],2.4 (3.04) mg/24 hours
same,"Urine Calcium, Mean Final Value",[5]; [7],42.0 mg/24 hours
same,"Urine Phosphorous, Mean Change from Baseline (SE)",[5]; [7],−2.1 (39.72) mg/24 hours
same,"Urine Phosphorous, Mean Final Value",[5]; [7],670.4 mg/24 hours
same,safety and tolerability,"[5]; CKD stage 3-4 subjects, 3 Phase 3 studies",safe and well tolerated
same,"Elevated Ca × P (2 consecutive Ca × P > 55 mg^2/dL^2), subjects n (%)",[5]; [8],13 (12%)
same,"Hypercalcemia (2 consecutive Ca > 10.5 mg/dL), subjects n (%)",[5]; [8],2 (2%)
same,"Hyperphosphatemia (2 consecutive P > 5.5 mg/dL), subjects n (%)",[5]; [8],11 (10%)
same,"Elevated Ca × P (2 consecutive Ca × P > 55 mg^2/dL^2), subjects n (%)",[5]; QD regimen,5 (14%)
same,"Hypercalcemia (2 consecutive Ca > 10.5 mg/dL), subjects n (%)",[5]; QD regimen,0 (%)
same,"Hyperphosphatemia (2 consecutive P > 5.5 mg/dL), subjects n (%)",[5]; QD regimen,5 (14%)
same,"Elevated Ca × P (2 consecutive Ca × P > 55 mg^2/dL^2), subjects n (%)",[5]; TIW regimen,8 (12%)
same,"Hypercalcemia (2 consecutive Ca > 10.5 mg/dL), subjects n (%)",[5]; TIW regimen,2 (3%)
same,"Hyperphosphatemia (2 consecutive P > 5.5 mg/dL), subjects n (%)",[5]; TIW regimen,6 (9%)
same,"eGFR (MDRD formula), Mean Change from Baseline",[5]; [6],−2.5 (0.526) mL/min/1.73 m^2
same,"eGFR (MDRD formula), Mean Final Value",[5]; [6],21.4 mL/min/1.73 m^2
same,"eGFR (MDRD formula), Mean Percent Change from Baseline (SE)",[5]; [6],−10.4 (2.268)
